“Also recorded” adds a separate entry of the source.

These results are taken from patent publication US20240366624A1, “METHODS AND COMPOSITIONS FOR TREATING THROMBOTIC DISEASE” (Washington University, priority 2023, published 2024).

For one experiment, the system named is mouse platelets. Description: Flow cytometry of P-selectin exposure and αIIbβ3 integrin activation, mouse platelets. Type of experiment: cell-based. As to conditions: 3 to 10 μM, mouse platelets, thrombin or CRP. The method, then:
FIG. 10(A-E) is an exemplary embodiment of 15E9 not affecting platelet activation and aggregation in accordance with the present disclosure. Mouse platelets were treated with 0.02-0.03 (FIG. 10A P-selectin, FIG. 10B aIIbβ3) or 0.025 U/ml thrombin (FIG. 10C) in the presence of 10 μg/ml mouse IgG2a (IgG2a) or a blocking anti-ERO1α antibody (15E9). Flow cytometry (FIG. 10(A-B)) and aggregation (FIG. 10C) assays were performed. FIG. 10D: Human platelets were treated with 0.025 U/ml thrombin in the presence of mouse IgG2a (mIgG2a) or 10 μg/ml 15E9 and 16B6, followed by measuring aggregation. […] P values determined by unpaired Student's t-test (vs. mIgG1).
FIG. 18(A-R) is an exemplary embodiment of novel small-molecule inhibitors recapitulating the defect in Ero1α (endoplasmic reticulum oxidoreductase 1a)-null platelets in accordance with the present disclosure. […] After incubation with a different concentration of B12-5, the specific interaction between B12-5 and ERO1α was measured by subtracting the nonspecific binding. The KD value was calculated from the Kon and Koff values. […] P values determined by ANOVA and Dunnett test (FIG. 18(B-E), FIG. 18(1-L), and FIG. 18(O-R) [for B12-5]) or Student t test (FIG. 18M, FIG. 18N, and FIG. 18(O-R) [for BAPTA (1,2-bis(o-aminophenoxy)ethane-N,N,N′,N′-tetraacetic acid)]). […]
In general terms: Flow cytometry measures light scatter and fluorescence of single cells or particles in a stream.

Experiment [1] relates to human platelets. Description: Flow cytometry of P-selectin exposure and αIIbβ3 integrin activation, human platelets. The format is cell-based. As to conditions: 3 to 10 μM, human platelets, thrombin or CRP. The source says: FIG. 18(A-R) is an exemplary embodiment of novel small-molecule inhibitors recapitulating the defect in Ero1α (endoplasmic reticulum oxidoreductase 1a)-null platelets in accordance with the present disclosure. FIG. 18A: The structure of B12 and its inhibitory effect on ERO1α activity. FIG. 18(B-E): The inhibitory effect of B12 on P-selectin exposure and αIIbβ3 integrin activation in (FIG. 18B and FIG. 18C) mouse and (FIG. 18D and FIG. 18E) human platelets. FIG. 18F: The structure of B12-5 and its inhibitory effect on ERO1α activity. FIG. 18G: A docking model of B12-5-ERO1α (3AHQ) and flavin adenine dinucleotide (FAD)-ERO1α complex. There are pi-sulfur interactions of the phenothiazine head group (B112-5) or a tricyclic ring (FAD) with Met389 and Cys397. Also, there are H bond interactions between the tail/alkyl group and His255, Asn259, and Arg287. […] After incubation with a different concentration of B12-5, the specific interaction between B12-5 and ERO1α was measured by subtracting the nonspecific binding. The KD value was calculated from the Kon and Koff values. […] P values determined by ANOVA and Dunnett test (FIG. 18(B-E), FIG. 18(1-L), and FIG. 18(O-R) [for B12-5]) or Student t test (FIG. 18M, FIG. 18N, and FIG. 18(O-R) [for BAPTA (1,2-bis(o-aminophenoxy)ethane-N,N,N′,N′-tetraacetic acid)]). […]

The nature of experiment [2]: H2O2 (antioxidant) activity assay. Type of experiment: biochemical.
The subject of experiment [3] is human platelets. Kind of experiment: Platelet aggregation, human platelets. The format is cell-based. The conditions noted are these: 3 to 10 μM. The method, then: FIG. 9(A-C) is an exemplary embodiment of EN460 inhibiting thrombin-induced aggregation of mouse and human platelets in accordance with the present disclosure. (A) Human (FIG. 9A), WT (FIG. 9B), and Ero1α-null (FIG. 9C) platelets were pretreated with EN460, an ERO1α inhibitor, at 1, 3, or 10 μM, and treated with 0.025 U/ml thrombin to induce platelet aggregation. The data represent the mean±SD (n=3). P values determined by ANOVA and Dunnett's test (FIG. 9(A-B)) or Student's t-test (FIG. 9C).
FIG. 10(A-E) is an exemplary embodiment of 15E9 not affecting platelet activation and aggregation in accordance with the present disclosure. Mouse platelets were treated with 0.02-0.03 (FIG. 10A P-selectin, FIG. 10B aIIbβ3) or 0.025 U/ml thrombin (FIG. 10C) in the presence of 10 μg/ml mouse IgG2a (IgG2a) or a blocking anti-ERO1α antibody (15E9). Flow cytometry (FIG. 10(A-B)) and aggregation (FIG. 10C) assays were performed. FIG. 10D: Human platelets were treated with 0.025 U/ml thrombin in the presence of mouse IgG2a (mIgG2a) or 10 μg/ml 15E9 and 16B6, followed by measuring aggregation. FIG. 10E: WT and Ero1α null platelets were treated with 10 μg/ml mouse IgG1 (mIgG1) or a blocking anti-PDI antibody (BD34), followed by measuring aggregation induced by 0.025 U/ml thrombin. The data represent the mean±SD (n=3). P values determined by unpaired Student's t-test (vs. mIgG1).

On to `O=C(CSc1nc(O)cc(O)n1)N1c2ccccc2Sc2ccccc21` [B12-5], for which the “P-selectin exposure and αIIbβ3 activation” value in the experiment on mouse platelets and in the experiment with human platelets [1] was “significantly reduced” each time. In addition, the “H2O2 inhibition at 100 μM (%)” value in experiment [2] (100 μM) was 6.6 ± 2%. Further, the “effect on H2O2 (antioxidant) activity” value in experiment [2] (at or up to 100 μM) is given as “minimal effect; also recorded: did not affect”.
For `O=C(O)c1cc(N2N=C(C(F)(F)F)/C(=C/c3ccc(-c4ccccc4)o3)C2=O)ccc1Cl` [EN460], in the experiment on human platelets [3], the thrombin-induced aggregation entry is “abrogated”.
